ChEMBL document CHEMBL4507294, “Data for DCP probe MSD-CYP11B2” (2021)

Experiments:
[1] = tested on: Tyrosine-protein kinase ABL1 (Homo sapiens), P00519 [Q252H]; details: Compound concentration 1000.0 nM
[2] = molecular target: Activin receptor type-2B (Homo sapiens) (UniProt Q13705); details: Compound concentration 1000.0 nM
[3] = molecular target: Bone morphogenetic protein receptor type-1A (Homo sapiens) (UniProt P36894); details: Compound concentration 1000.0 nM
[4] = molecular target: Calcium/calmodulin-dependent protein kinase type 1D (Homo sapiens) (UniProt Q8IU85); details: Compound concentration 1000.0 nM
[5] = molecular target: Calcium/calmodulin-dependent protein kinase type II subunit beta (Homo sapiens) (UniProt Q13554); details: Compound concentration 1000.0 nM
[6] = molecular target: Cyclin-dependent kinase 11A (Homo sapiens) (UniProt Q9UQ88); details: Compound concentration 1000.0 nM
[7] = molecular target: Cyclin-dependent kinase 8 (Homo sapiens) (UniProt P49336); details: Compound concentration 1000.0 nM
[8] = molecular target: Cyclin-dependent kinase-like 5 (Homo sapiens) (UniProt O76039); details: Compound concentration 1000.0 nM
[9] = molecular target: Dual specificity protein kinase CLK2 (Homo sapiens) (UniProt P49760); details: Compound concentration 1000.0 nM
[10] = tested on: Epidermal growth factor receptor (Homo sapiens), P00533 [UNDEFINED MUTATION]; details: Compound concentration 1000.0 nM
[11] = molecular target: Ephrin type-B receptor 4 (Homo sapiens) (UniProt P54760); details: Compound concentration 1000.0 nM
[12] = molecular target: Mitogen-activated protein kinase 4 (Homo sapiens) (UniProt P31152); details: Compound concentration 1000.0 nM
Sequence of Mitogen-activated protein kinase 4 (Homo sapiens) (P31152 whole entry): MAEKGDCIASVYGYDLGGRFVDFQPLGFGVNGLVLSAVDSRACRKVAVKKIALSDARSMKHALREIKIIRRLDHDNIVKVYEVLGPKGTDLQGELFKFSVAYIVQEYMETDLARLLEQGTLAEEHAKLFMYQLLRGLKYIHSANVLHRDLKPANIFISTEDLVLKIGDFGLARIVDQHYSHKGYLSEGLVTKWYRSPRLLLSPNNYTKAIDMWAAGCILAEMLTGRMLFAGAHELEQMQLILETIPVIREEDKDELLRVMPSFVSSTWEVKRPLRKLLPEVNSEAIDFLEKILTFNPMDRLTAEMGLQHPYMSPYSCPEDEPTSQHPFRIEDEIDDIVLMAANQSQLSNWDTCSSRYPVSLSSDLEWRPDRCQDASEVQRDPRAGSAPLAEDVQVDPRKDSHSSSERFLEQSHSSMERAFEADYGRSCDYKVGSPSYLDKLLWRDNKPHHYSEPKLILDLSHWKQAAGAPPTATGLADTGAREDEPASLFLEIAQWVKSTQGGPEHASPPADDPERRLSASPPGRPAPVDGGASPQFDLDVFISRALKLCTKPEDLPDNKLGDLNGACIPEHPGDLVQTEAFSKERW

[13] = molecular target: Serine/threonine-protein kinase/endoribonuclease IRE1 (Homo sapiens) (UniProt O75460); details: Compound concentration 1000.0 nM
[14] = molecular target: Fibroblast growth factor receptor 3 (Homo sapiens) (UniProt P22607); details: Compound concentration 1000.0 nM
[15] = tested on: Receptor-type tyrosine-protein kinase FLT3 (Homo sapiens), P36888 [UNDEFINED MUTATION]; details: Compound concentration 1000.0 nM
[16] = molecular target: Tyrosine-protein kinase FRK (Homo sapiens) (UniProt P42685); details: Compound concentration 1000.0 nM
Sequence of Tyrosine-protein kinase FRK (Homo sapiens) (P42685 whole entry): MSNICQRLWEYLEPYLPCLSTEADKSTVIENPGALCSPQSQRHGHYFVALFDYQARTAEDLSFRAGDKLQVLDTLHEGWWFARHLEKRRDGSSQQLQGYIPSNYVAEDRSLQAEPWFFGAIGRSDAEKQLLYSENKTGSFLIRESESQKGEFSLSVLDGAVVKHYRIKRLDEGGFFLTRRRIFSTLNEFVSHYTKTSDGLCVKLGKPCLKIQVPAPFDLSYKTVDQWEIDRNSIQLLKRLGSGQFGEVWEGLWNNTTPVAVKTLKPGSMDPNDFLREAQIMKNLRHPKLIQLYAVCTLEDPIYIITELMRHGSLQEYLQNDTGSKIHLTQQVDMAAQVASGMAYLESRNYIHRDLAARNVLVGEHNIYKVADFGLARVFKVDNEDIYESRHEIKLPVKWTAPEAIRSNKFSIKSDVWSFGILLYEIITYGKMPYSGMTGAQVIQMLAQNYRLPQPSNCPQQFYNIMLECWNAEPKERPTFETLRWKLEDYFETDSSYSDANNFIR

[17] = molecular target: Beta-adrenergic receptor kinase 1 (Homo sapiens) (UniProt P25098); details: Compound concentration 1000.0 nM
[18] = molecular target: G protein-coupled receptor kinase 3 (Homo sapiens) (UniProt P35626); details: Compound concentration 1000.0 nM
[19] = molecular target: Glycogen synthase kinase-3 alpha (Homo sapiens) (UniProt P49840); details: Compound concentration 1000.0 nM
Sequence of Glycogen synthase kinase-3 alpha (Homo sapiens) (P49840 2-483 limits assumed): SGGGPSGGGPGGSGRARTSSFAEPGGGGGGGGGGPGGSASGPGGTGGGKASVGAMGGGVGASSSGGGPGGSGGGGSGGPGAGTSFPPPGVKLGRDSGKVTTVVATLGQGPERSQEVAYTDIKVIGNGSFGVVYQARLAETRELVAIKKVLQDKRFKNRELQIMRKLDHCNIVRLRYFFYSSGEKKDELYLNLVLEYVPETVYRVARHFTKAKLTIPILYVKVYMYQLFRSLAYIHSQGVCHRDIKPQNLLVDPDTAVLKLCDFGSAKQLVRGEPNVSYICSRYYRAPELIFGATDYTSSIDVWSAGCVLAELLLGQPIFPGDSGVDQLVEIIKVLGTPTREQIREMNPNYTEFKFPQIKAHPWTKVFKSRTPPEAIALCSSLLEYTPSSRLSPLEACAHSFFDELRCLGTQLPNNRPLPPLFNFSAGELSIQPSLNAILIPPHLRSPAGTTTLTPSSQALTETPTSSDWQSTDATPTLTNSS

[20] = molecular target: Glycogen synthase kinase-3 beta (Homo sapiens) (UniProt P49841); details: Compound concentration 1000.0 nM
[21] = molecular target: Homeodomain-interacting protein kinase 2 (Homo sapiens) (UniProt Q9H2X6); details: Compound concentration 1000.0 nM
[22] = molecular target: Homeodomain-interacting protein kinase 4 (Homo sapiens) (UniProt Q8NE63); details: Compound concentration 1000.0 nM
[23] = molecular target: Serine/threonine-protein kinase ICK (Homo sapiens) (UniProt Q9UPZ9); details: Compound concentration 1000.0 nM
[24] = molecular target: Tyrosine-protein kinase JAK2 (Homo sapiens) (UniProt O60674); details: Compound concentration 1000.0 nM
[25] = molecular target: Mitogen-activated protein kinase 9 (Homo sapiens) (UniProt P45984); details: Compound concentration 1000.0 nM
[26] = molecular target: Mast/stem cell growth factor receptor Kit (Homo sapiens) (UniProt P10721); details: Compound concentration 1000.0 nM
[27] = molecular target: LIM domain kinase 1 (Homo sapiens) (UniProt P53667); details: Compound concentration 1000.0 nM
Sequence of LIM domain kinase 1 (Homo sapiens) (P53667 whole entry, looked up, the tested form may be a part): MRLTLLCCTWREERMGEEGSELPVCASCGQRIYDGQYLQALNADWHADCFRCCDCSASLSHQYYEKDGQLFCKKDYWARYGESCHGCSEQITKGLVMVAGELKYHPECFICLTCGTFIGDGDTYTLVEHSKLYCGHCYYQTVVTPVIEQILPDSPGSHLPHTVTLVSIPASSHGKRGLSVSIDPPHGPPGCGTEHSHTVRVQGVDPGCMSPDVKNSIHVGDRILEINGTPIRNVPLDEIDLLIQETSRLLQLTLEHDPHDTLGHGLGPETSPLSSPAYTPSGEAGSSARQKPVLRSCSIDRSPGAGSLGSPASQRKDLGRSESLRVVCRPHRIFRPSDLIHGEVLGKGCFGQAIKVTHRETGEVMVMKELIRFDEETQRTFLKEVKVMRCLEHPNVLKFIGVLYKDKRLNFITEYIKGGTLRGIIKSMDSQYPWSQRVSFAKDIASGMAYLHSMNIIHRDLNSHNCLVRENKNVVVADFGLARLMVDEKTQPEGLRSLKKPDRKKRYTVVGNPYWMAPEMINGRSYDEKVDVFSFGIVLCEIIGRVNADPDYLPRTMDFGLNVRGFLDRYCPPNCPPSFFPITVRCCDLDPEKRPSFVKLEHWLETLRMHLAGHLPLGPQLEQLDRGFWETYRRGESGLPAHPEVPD

[28] = molecular target: Tyrosine-protein kinase Lyn (Homo sapiens) (UniProt P07948); details: Compound concentration 1000.0 nM
[29] = molecular target: Mitogen-activated protein kinase kinase kinase kinase 5 (Homo sapiens) (UniProt Q9Y4K4); details: Compound concentration 1000.0 nM
[30] = tested on: Hepatocyte growth factor receptor (Homo sapiens), P08581 [M1250T]; details: Compound concentration 1000.0 nM
[31] = molecular target: Misshapen-like kinase 1 (Homo sapiens) (UniProt Q8N4C8); details: Compound concentration 1000.0 nM
[32] = molecular target: Myosin light chain kinase (Homo sapiens) (UniProt Q32MK0); details: Compound concentration 1000.0 nM
[33] = molecular target: Myosin light chain kinase 2, skeletal/cardiac muscle (Homo sapiens) (UniProt Q9H1R3); details: Compound concentration 1000.0 nM
Sequence of Myosin light chain kinase 2, skeletal/cardiac muscle (Homo sapiens) (Q9H1R3 whole entry): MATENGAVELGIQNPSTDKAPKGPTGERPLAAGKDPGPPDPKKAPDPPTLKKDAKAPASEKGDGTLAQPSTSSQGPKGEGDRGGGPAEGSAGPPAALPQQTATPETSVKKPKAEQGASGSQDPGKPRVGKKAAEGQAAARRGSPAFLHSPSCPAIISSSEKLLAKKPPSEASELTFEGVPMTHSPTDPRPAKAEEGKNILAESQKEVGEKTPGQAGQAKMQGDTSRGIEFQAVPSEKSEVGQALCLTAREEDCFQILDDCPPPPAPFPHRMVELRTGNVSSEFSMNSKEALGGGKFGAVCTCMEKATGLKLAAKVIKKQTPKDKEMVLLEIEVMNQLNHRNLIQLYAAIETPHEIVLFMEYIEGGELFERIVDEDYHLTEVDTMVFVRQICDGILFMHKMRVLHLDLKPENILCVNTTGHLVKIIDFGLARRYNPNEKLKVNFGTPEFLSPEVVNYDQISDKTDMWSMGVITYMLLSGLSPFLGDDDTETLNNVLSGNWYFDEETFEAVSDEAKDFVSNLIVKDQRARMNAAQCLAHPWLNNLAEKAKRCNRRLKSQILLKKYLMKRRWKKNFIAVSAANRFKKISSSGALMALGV

[34] = molecular target: Myosin-IIIa (Homo sapiens) (UniProt Q8NEV4); details: Compound concentration 1000.0 nM
[35] = molecular target: Mitogen-activated protein kinase 13 (Homo sapiens) (UniProt O15264); details: Compound concentration 1000.0 nM
[36] = tested on: Phosphatidylinositol 4,5-bisphosphate 3-kinase catalytic subunit alpha isoform (Homo sapiens), P42336 [H1047L]; details: Compound concentration 1000.0 nM
Sequence of Phosphatidylinositol 4,5-bisphosphate 3-kinase catalytic subunit alpha isoform (Homo sapiens), P42336 [H1047L] (P42336 whole entry H1047L, canonical isoform): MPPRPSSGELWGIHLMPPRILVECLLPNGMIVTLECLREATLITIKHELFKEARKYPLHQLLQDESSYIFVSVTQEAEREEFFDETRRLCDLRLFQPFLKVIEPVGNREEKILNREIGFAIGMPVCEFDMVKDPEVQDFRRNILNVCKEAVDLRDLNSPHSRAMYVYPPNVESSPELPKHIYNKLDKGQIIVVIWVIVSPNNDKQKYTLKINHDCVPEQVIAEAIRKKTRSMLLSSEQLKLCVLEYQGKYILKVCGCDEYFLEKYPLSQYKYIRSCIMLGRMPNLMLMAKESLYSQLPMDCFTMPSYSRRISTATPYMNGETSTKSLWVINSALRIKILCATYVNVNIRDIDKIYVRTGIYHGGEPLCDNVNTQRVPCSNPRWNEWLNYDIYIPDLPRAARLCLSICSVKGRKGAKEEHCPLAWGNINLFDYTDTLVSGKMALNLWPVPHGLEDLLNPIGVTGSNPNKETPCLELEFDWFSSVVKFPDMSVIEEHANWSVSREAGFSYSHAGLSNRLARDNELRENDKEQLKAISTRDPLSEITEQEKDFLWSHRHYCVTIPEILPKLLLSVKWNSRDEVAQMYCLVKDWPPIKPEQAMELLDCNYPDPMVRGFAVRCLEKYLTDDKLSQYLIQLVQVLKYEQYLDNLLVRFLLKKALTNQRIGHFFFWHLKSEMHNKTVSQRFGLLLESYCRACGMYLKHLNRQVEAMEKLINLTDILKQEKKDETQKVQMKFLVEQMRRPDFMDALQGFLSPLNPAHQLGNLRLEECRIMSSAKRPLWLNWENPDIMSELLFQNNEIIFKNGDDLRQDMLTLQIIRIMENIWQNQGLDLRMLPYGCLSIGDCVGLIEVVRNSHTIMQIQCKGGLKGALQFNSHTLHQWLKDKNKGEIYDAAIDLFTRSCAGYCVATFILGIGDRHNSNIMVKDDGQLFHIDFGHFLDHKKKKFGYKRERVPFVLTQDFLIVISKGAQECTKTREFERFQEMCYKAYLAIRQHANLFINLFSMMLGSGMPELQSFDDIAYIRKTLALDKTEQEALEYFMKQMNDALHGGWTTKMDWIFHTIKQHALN

[37] = molecular target: Phosphatidylinositol 4,5-bisphosphate 3-kinase catalytic subunit delta isoform (Homo sapiens) (UniProt O00329); details: Compound concentration 1000.0 nM
[38] = molecular target: Phosphatidylinositol 4-phosphate 5-kinase type-1 alpha (Homo sapiens) (UniProt Q99755); details: Compound concentration 1000.0 nM
[39] = molecular target: Serine/threonine-protein kinase N1 (Homo sapiens) (UniProt Q16512); details: Compound concentration 1000.0 nM
[40] = molecular target: Protein kinase C delta type (Homo sapiens) (UniProt Q05655); details: Compound concentration 1000.0 nM
[41] = molecular target: Interferon-induced, double-stranded RNA-activated protein kinase (Homo sapiens) (UniProt P19525); details: Compound concentration 1000.0 nM
[42] = molecular target: Serine/threonine-protein kinase PRP4 homolog (Homo sapiens) (UniProt Q13523); details: Compound concentration 1000.0 nM
[43] = molecular target: TGF-beta receptor type-1 (Homo sapiens) (UniProt P36897); details: Compound concentration 1000.0 nM
[44] = molecular target: Non-receptor tyrosine-protein kinase TYK2 (Homo sapiens) (UniProt P29597); details: Compound concentration 1000.0 nM
[45] = molecular target: 5-hydroxytryptamine receptor 7 (Homo sapiens) (UniProt P34969); details: Compound concentration 10.0 uM
Sequence of 5-hydroxytryptamine receptor 7 (Homo sapiens) (P34969 whole entry): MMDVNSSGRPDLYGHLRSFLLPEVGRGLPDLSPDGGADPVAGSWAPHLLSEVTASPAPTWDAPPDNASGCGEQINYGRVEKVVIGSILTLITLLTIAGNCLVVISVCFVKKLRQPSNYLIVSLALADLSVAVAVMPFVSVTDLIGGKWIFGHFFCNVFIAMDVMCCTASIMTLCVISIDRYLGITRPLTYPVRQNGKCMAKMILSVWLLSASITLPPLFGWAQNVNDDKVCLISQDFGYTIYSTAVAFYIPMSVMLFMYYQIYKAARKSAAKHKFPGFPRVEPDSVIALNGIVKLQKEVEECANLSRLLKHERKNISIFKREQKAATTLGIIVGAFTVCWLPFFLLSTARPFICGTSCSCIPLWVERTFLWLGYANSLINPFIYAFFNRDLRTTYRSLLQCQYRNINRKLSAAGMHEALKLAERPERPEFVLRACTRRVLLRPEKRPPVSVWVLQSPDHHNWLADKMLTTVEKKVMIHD

Sequence of Bone morphogenetic protein receptor type-1A (Homo sapiens) (P36894 whole entry): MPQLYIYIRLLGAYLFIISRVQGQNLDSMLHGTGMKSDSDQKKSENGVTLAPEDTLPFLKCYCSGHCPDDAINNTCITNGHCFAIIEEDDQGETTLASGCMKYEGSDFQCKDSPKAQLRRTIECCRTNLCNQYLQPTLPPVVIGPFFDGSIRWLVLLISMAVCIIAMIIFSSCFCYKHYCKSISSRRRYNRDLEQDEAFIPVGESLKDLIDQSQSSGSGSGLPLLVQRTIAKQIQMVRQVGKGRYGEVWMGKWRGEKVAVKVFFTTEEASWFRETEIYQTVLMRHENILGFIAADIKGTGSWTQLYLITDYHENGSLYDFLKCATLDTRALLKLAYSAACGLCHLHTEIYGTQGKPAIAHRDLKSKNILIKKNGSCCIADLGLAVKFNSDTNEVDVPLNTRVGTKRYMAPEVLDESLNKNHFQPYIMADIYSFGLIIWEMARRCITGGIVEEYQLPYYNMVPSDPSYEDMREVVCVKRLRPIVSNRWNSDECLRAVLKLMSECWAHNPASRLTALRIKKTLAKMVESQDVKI

FC(F)(F)c1ccc2c(c1)nc(-c1cccnc1)n2C1CC1 [MSD-CYP11B2-Negative-control]
inactive: residual activity [1] 100% | residual activity [2] 100% | residual activity [3] 93% | residual activity [4] 100% | residual activity [5] 100% | residual activity [6] 100% | residual activity [7] 100% | residual activity [8] 91% | residual activity [9] 100% | residual activity [10] 100% | residual activity [11] 100% | residual activity [12] 100% | residual activity [13] 100% | residual activity [14] 100% | residual activity [15] 100% | residual activity [16] 100% | residual activity [17] 100% | residual activity [18] 76% | residual activity [19] 100% | residual activity [20] 100% | residual activity [21] 100% | residual activity [22] 100% | residual activity [23] 100% | residual activity [24] 100% | residual activity [25] 100% | residual activity [26] 100% | residual activity [27] 100% | residual activity [28] 82% | residual activity [29] 100% | residual activity [30] 100% | residual activity [31] 100% | residual activity [32] 100% | residual activity [33] 100% | residual activity [34] 100% | residual activity [35] 100% | residual activity [36] 100% | residual activity [37] 81% | residual activity [38] 71% | residual activity [39] 100% | residual activity [40] 100% | residual activity [41] 89% | residual activity [42] 98% | residual activity [43] 78% | residual activity [44] 100% | inhibition [45] 0.88%

CC(C)(O)c1cncc(-c2nc3ccc(F)cc3n2C2CC2)c1 [MSD-CYP11B2]
inactive: residual activity [1] 100% | residual activity [2] 85% | residual activity [3] 88% | residual activity [4] 100% | residual activity [5] 100% | residual activity [6] 100% | residual activity [7] 95% | residual activity [8] 100% | residual activity [9] 100% | residual activity [10] 100% | residual activity [11] 100% | residual activity [12] 100% | residual activity [13] 100% | residual activity [14] 100% | residual activity [15] 100% | residual activity [16] 100% | residual activity [17] 100% | residual activity [18] 79% | residual activity [19] 100% | residual activity [20] 100% | residual activity [21] 100% | residual activity [22] 100% | residual activity [23] 100% | residual activity [24] 100% | residual activity [25] 100% | residual activity [26] 100% | residual activity [27] 100% | residual activity [28] 100% | residual activity [29] 92% | residual activity [30] 100% | residual activity [31] 100% | residual activity [32] 87% | residual activity [33] 97% | residual activity [34] 100% | residual activity [35] 100% | residual activity [36] 97% | residual activity [37] 100% | residual activity [38] 76% | residual activity [39] 100% | residual activity [40] 100% | residual activity [41] 91% | residual activity [42] 58% | residual activity [43] 90% | residual activity [44] 94% | inhibition [45] -2.18%
